Results on seven compounds are retold here after patent US20200155475A1, “Transdermal Drug Delivery System” (Avro Life Sciences, Inc., priority 2017, published 2020).

The procedure of series [1]: (§1) Modified Franz Diffusion Cells were filled with 55 ml of phosphate buffer, and a skin simulating membrane was placed in each cell at air-water interface and secured with a holed cap. The cells were placed into a water bath and the temperature was equilibrated to 38° C. The drug-loaded patch was gently placed onto the membrane and pressed down lightly. At different time points, the drug solution was collected and replaced with fresh buffer, and ultraviolet (UV) absorbance was measured at 200-300 nm with clean quartz cuvettes, using standard curves to determine drug concentrations and cumulative drug release percentages over time.
as §1, with “The permeation or flux of several drugs transdermally delivered to the skin was measured in vitro as a function of time using an artificial skin simulating membrane attached to a Franz diffusion cell at air-water interface. […] Modified” for “Modified”

A short description of series [2]: Percentage diffusion of 4-aminopyridine through the transdermal drug delivery system over time. The series is classed as in vitro ADME. As for the experimental part: The patch in the transdermal drug delivery system consisted of 23% (w/w) glycerol, 16% (w/w) gum Arabic, 11% (w/w) medium molecular weight chitosan, and […]. The patch was prepared by casting the liquid matrix gel upon a suitable Teflon backing layer and drying for 18 hours at 55° C. The resulting diffusion profiles were obtained by conducting the same experiment three times. The patch samples indicate the number of times that the same experiment was conducted.
The patch in the transdermal drug delivery system consisted of 50% (w/w) glycerol, 14% (w/w) PVP, 18% (w/w) medium molecular weight chitosan, and 18% (w/w) lactic acid. The patch was prepared by casting the liquid matrix gel upon a suitable Teflon backing layer and drying for 3 hours at 80° C. The resulting diffusion profiles were obtained by conducting the same experiment eight times. The patch samples indicate the number of times that the same experiment was conducted.
The patch in the transdermal drug delivery system consisted of 36% (w/w) glycerol, 15.3% PVP, 0.7% (w/w) gum Arabic, 9.5% (w/w) medium molecular weight chitosan, and 38.5% (w/w) lactic acid. The patch was prepared by casting the liquid matrix gel upon a suitable Teflon backing layer and drying for 5 hours at 80° C. The resulting diffusion profiles were obtained by conducting the same experiment three times. The patch samples indicate the number of times that the same experiment was conducted.
The percentage diffusion of 4-aminopyridine through the transdermal drug delivery system provided herein was measured over time, using different patch compositions. […] The patch was prepared by casting the liquid matrix gel upon a suitable Teflon backing layer and drying for 18 hours at 55° C.
The patch was prepared by casting the liquid matrix gel upon a suitable Teflon backing layer and drying for 3 hours at 80° C.
The patch was prepared by casting the liquid matrix gel upon a suitable Teflon backing layer and drying for 5 hours at 80° C.

Series [3] is described as follows: Further experiments: permeation of small molecules through the patch matrix. Particulars: molecules trapped in polymer matrix.

Molecules are shown by their SMILES.

As to `O=C1CCc2ccc(OCCCCN3CCN(c4cccc(Cl)c4Cl)CC3)cc2N1` [aripiprazole, Aripiprazole], in series [1], the “diffusion of drug from the patch through skin simulating membrane over time (system permeable / impermeable)” value was “impermeable”. Same read-out and setting: the same measure for `CN(C)CCC[C@@]1(c2ccc(F)cc2)OCc2cc(C#N)ccc21.O=C(O)C(=O)O` [escitalopram oxalate, Escitalopram Oxalate]: “permeable”. With `Nc1ccncc1` [4-aminopyridine], the “diffusion of drug from the patch through skin simulating membrane over time (system permeable / impermeable)” value in series [1] is reported as “permeable”. For the same compound, the “permeation and diffusion through patch over time” value in series [2] (patch: 23% glycerol, 16% gum Arabic, 11% medium MW chitosan, 48% lactic acid, dried 18 hours at 55° C., FIG. 4) is “allows permeation and diffusion”; in series [2] (patch: 36% glycerol, 15.3% PVP, 0.7% gum Arabic, 9.5% medium MW chitosan, 38.5% lactic acid, dried 5 hours at 80° C., FIG. 6), “allows permeation and diffusion”; in series [2] (patch: 50% glycerol, 14% PVP, 18% medium MW chitosan, 18% lactic acid, dried 3 hours at 80° C., FIG. 5), “allows permeation and diffusion”. For the compound `CC(Cc1ccccc1)NCCn1cnc2c1c(=O)n(C)c(=O)n2C` (stereo not shown) [fenethylline], the “permeation into skin and bloodstream through the patch matrix” value in series [3] is reported as “cannot permeate”. Turning to `CC(=O)CCCCn1c(=O)c2c(ncn2C)n(C)c1=O` [pentoxifyline], the “permeation into skin and bloodstream through the patch matrix” value in series [3] is “cannot permeate”.

With `CC(NCCn1cnc2c1c(=O)n(C)c(=O)n2C)C(O)c1ccccc1` (stereo not shown) [cafedrine], in series [3], the “permeation into skin and bloodstream through the patch matrix” value was “cannot permeate”.

As for `Cn1c(=O)c2c(ncn2CCNCC(O)c2ccc(O)c(O)c2)n(C)c1=O` (stereo not shown) [theodrenaline], in series [3], the “permeation into skin and bloodstream through the patch matrix” value is “cannot permeate”.
